Assay results taken from US7829552B2, “Phosphorus-containing thyromimetics” (Metabasis Therapeutics, Inc., priority 2003, dated 2010).

How the values were obtained:
[1] = tested on: Hypercholesterolemic rats; test: Cholesterol lowering in hypercholesterolemic (cholesterol-fed) rats; assay type: in vivo, rat; details: for cholesterol lowering: hypercholesterolemic rats, 0.5 mg/kg/d orally; for efficacy in lowering cholesterol: another experiment, dose and route not given
Method: Plasma cholesterol values were assessed prior to and following treatment and the effects of compound were expressed as a percentage change from the pre-dose cholesterol levels. […] Compounds were routinely tested for oral efficacy at a dose of 0.5 mg/kg/d. Hypercholesterolemic rats were treated with vehicle, Compound 13-1-cis (a HepDirect version of Compound 7), Compound 19-1 (a diethyl ester of Compound 19-2), Compound 13-9 (a HepDirect version of Compound 19-2), Compound 12-5 (a bisPom version of compound 19-2), or Compound 15-5 (a bisamidate version of Compound 19-2) at 0.5 mg/kg/d orally. Compound 13-1-cis has been extensively characterized and was used as the positive control for the assay.

cholesterol-fed rat [2] = test: Subacute studies in cholesterol-fed rats, IP once-a-day for seven days: serum cholesterol, heart weight, heart GPDH
Method: The cholesterol-fed rat is an animal model of hypercholesterolemia generated by feeding the animals a diet with high cholesterol content.
Serum cholesterol values were assessed and the animals randomized into groups for treatment.

Sprague Dawley (SD) rat = test: Cardiovascular activity of T3 mimetics in the Sprague Dawley rat, oral 7 days; assay type: in vivo; details: SD rats, p.o. 7 days, Compound 18 1 mg/kg, Compound cis-13-1 1-50 mg/kg/day
From the text: Method: […] The control group (n=6) was given vehicle only. […] On the 7th day after the start of dosing, animals were anesthetized with Isoflurane and the left ventricle cannulated with a high fidelity catheter tip transducer via the right carotid artery. Left ventricular pressure, its first derivative (LVdP/dt), lead I ECG, and heart rate (HR) triggered off the ECG waveform, were digitally recorded. LV dP/dt is a well accepted measure of ionotropic state. Systolic and diastolic aortic pressures were measured by retracting the catheter into the proximal aorta.

[3] = animals, e.g., rodent models and monkeys; cited from earlier work
cholesterol-fed rat [4] = details: cited from earlier work
[5] = molecular target: T1, human thyroid hormone receptors TRα1 (Homo sapiens, UniProt P10827); test: Receptor binding, scintillation proximity assay (SPA) with labeled T3; T3 binding also by gel filtration; details: SPA data; read-out: Ki TRα
T1 construct: made in house; host or cells: Sf9 insect cells (baculovirus co-infection of TR and RXRα), cell lysate
T1 sequence (P10827 1-410 isoform P10827-2): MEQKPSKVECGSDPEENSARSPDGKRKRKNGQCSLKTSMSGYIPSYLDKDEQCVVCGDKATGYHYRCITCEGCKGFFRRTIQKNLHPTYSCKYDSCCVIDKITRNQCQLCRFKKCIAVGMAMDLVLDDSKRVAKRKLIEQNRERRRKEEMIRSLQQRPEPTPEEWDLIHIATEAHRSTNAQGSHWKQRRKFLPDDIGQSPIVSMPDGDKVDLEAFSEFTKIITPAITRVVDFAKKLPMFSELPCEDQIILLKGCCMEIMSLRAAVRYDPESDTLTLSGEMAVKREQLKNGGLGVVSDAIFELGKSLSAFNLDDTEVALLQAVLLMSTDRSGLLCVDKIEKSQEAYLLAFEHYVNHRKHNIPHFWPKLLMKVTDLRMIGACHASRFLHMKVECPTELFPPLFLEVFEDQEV
T1 sequence (P19793 1-462 partner): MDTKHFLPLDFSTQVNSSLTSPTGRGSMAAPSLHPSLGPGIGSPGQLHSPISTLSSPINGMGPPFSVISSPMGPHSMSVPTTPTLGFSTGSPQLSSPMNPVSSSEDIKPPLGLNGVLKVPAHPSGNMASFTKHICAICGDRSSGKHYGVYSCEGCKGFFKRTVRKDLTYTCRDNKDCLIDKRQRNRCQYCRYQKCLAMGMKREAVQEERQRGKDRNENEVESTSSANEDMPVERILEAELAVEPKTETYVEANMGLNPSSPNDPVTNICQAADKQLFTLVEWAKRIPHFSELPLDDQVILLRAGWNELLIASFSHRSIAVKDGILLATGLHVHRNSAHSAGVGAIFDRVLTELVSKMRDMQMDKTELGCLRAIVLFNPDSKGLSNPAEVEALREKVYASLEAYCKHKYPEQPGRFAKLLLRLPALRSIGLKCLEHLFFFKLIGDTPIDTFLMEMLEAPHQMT
Method: (§1) Methods: Baculoviruses expressing TRα1, TRβ1 and RXRα were generated using cDNA and other reagents from Invitrogen (Carlsbad, Calif.). To produce TR/RXR heterodimer proteins, the sf9 insect cells were first grown to a density of 1−5×10^5 cells/mL. TRα1 or TRβ1 and RXRα baculovirus stocks were added to the cell culture with a ratio of 1 to 1 (multiplicity of infection=10). The cells were harvested three days after the infection.
(§2) Binding of compounds to either the TRα1 or TRβ1 were also performed by means of scintillation proximity assays (SPA). The SPA assay, a common method used for the quantitation of receptor-ligand equilibria, makes use of special beads coated with a scintillant and a capture molecule, copper, which binds to the histidine-tagged α or β receptor.

[6] = molecular target: T2, human thyroid hormone receptors TRβ1 (Homo sapiens, UniProt P10828); test: as above; details: SPA data; read-out: Ki TRβ
T2 construct: made in house; host or cells: Sf9 insect cells (baculovirus co-infection of TR and RXRα), cell lysate
T2 sequence (P10828 1-461): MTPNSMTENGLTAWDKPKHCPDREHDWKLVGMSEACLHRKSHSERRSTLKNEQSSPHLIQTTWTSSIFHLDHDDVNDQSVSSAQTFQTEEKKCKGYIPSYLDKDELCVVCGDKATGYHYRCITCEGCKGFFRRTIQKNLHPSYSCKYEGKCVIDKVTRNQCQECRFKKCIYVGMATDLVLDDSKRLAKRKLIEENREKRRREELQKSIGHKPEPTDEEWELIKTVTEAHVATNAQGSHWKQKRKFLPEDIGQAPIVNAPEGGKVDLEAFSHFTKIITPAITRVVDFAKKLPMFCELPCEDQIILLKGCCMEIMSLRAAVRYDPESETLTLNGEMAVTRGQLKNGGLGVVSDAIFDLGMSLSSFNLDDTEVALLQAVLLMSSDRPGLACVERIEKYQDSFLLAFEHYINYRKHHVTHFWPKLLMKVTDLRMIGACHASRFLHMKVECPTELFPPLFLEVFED
T2 sequence (P19793 1-462 partner): T1 sequence (P19793 1-462 partner)
Method: as §1, §2

[7] = tested on: Normal rats (Sprague-Dawley); test: Subacute studies in normal rats, continuous infusion by osmotic pump: liver/heart mGPDH activity, heart weight; assay type: in vivo, rat; details: continuous infusion 1 mg/kg/day
From the text: Efficacy endpoints include serum cholesterol, liver mitochondrial glycerol phosphate dehydrogenase (mGPDH) activity and the expression of relevant liver genes (e.g., the LDL-receptor, apoB, cpt-1, spot14 and apoAI). Safety parameters include heart weight, heart rate, heart mGPDH activity, the expression and key genes involved in cardiac structure and function (e.g., Serca2, HCN2, Kv1.5, MHCα, MHCβ, Alpha1c), and standard plasma chemistry analysis (liver enzymes, electrolytes, creatinine). Endocrine effects are monitored by analysis of serum thyroid stimulating hormone (TSH). [Taylor et al., Mol Pharmacol 52(3): 542-7 (1997); Weitzel et al., Eur Biochem 268(14):4095-4103 (2001)]
Methods: mGPDH activity was analyzed in isolated mitochondria using 2-(4-iodophenyl)-3-(4-nitrophenyl)-5-phenyl tetrazolium chloride as the terminal electron acceptor (Gardner R S, Analytical Biochemistry 59:272 (1974)). Commercially available GPDH was used in each assay as a standard (Sigma, St. Louis, Mo.). Changes in levels of mRNA for liver and heart genes are analyzed using reverse transcriptase followed by real-time PCR analysis. The analysis is performed using an iCycler instrument (Biorad) and appropriate primers by means of standard methodology [e.g., Schwab D A et al. (2000) Life Sciences 66: 1683-94]. The amounts of mRNA are normalized to an internal control, typically, cyclophilin. Serum TSH is measured using an enzyme immunoassay (EIA) kit designed for rat TSH (Amersham Pharmacia Biotech, Arlington Heights, Ill.).
Normal rats (Sprague-Dawley) were maintained on a standard diet. […] The compounds were brought up to an appropriate volume using PBS and BSA to maintain solubility within the pump. The compounds were chemically stable in the excipient at 37° C. for 7 days.
Values are expressed as percent of control. (Table 4)

Normal rats = test: Hepatic triglyceride content in normal rats chronically infused for 7 days; assay type: in vivo, rat
Method: Normal rats were chronically infused with Compound 7 for 7 days. Liver triglycerides were analyzed following lipid extraction by the Bligh Dyer method (Bligh E G and Dyer W J, A rapid method of total lipid extraction and purification. Can J Med. Sci. 1959 (August); 37(8):911-7, incorporated herein by reference). Total triglycerides were analyzed in the liver extracts by an enzymatic assay (Thermo Electron Corporation). Total lipid was normalized to initial liver weight and triglyceride content was normalized to liver weight. […] There was a 4% reduction in liver triglycerides for this group and the results were not statistically significant.

Compound: CC(C)c1cc(Oc2c(Br)cc(CP(=O)(OCOC(=O)C(C)(C)C)OCOC(=O)C(C)(C)C)cc2Br)ccc1O [Compound 12-5, Di-(pivaloyloxymethyl)[3,5-dibromo-4-(4′-hydroxy-3′-iso-propylphenoxy)benzyl]phosphonate]
- cholesterol lowering [1]: significant lowering of cholesterol

Compound: CC(C)c1cc(Oc2c(Cl)c(F)nc(NCP(=O)(OCOC(=O)C(C)(C)C)OCOC(=O)C(C)(C)C)c2Cl)ccc1O [Compound 12-9]
- efficacy in lowering cholesterol [1]: not efficiacous

Compound: Cc1cc(OC[P@@]2(=O)OCC[C@@H](c3cccc(Br)c3)O2)cc(C)c1Cc1ccc(O)c(C(C)C)c1 [Compound 13-2-cis, 2-[(3,5-dimethyl-4-(4′-hydroxy-3′-iso-propylbenzyl)phenoxy)methyl]-4-(3-bromophenyl)-2-oxo-2λ^5-[1,3,2]-dioxaphosphonane]
- efficacy in lowering cholesterol [1]: not efficiacous

Compound: CCOC(=O)[C@H](C)NP(=O)(Cc1cc(Br)c(Oc2ccc(O)c(C(C)C)c2)c(Br)c1)N[C@@H](C)C(=O)OCC [Compound 15-5, Di-N-(L-1-ethoxycarbonylethylamino)[3,5-dibromo-4-(4′-hydroxy-3′-iso-propylphenoxy)benzyl]phosphonamide]
- cholesterol lowering [1]: significant lowering of cholesterol

Compound: Cc1cc(OCC(=O)O)cc(C)c1Cc1ccc(O)c(C(C)C)c1 [Compound 17, [3,5-dimethyl-4-(4′-hydroxy-3′-iso-propylbenzyl)phenoxy]acetic Acid]
- serum cholesterol (cholesterol-fed rat [2]; 0.1-1 mg/kg/day, IP once-a-day for seven days): significantly decreased serum cholesterol
- therapeutic window (separation between cholesterol lowering and cardiac toxicity) (cholesterol-fed rat [2]; cholesterol-fed rats): no separation between efficacy (cholesterol lowering) and toxicity
- cardiac hypertrophy (cholesterol-fed rat [2]; cholesterol-fed rats, IP seven days, Compound 17 0.1-1 mg/kg/day, Compound 7 all doses): Undesirable cardiac hypertrophy was observed

Compound: CC(C)c1cc(Oc2c(Cl)cc(CC(=O)O)cc2Cl)ccc1O [Compound 18, 3,5-dichloro-4-[4′-hydroxy-3′-iso-propylphenoxy]benzeneacetic Acid, reference compound]
- Heart weight (Sprague Dawley (SD) rat; vs control): significantly increased
- heart weight normalized to body weight (Sprague Dawley (SD) rat; vs control): significantly increased
- HR (Sprague Dawley (SD) rat; vs vehicle): marked and statistically significant increases
- LV dP/dt (Sprague Dawley (SD) rat; vs vehicle): marked and statistically significant increases
- systolic aortic pressure (Sprague Dawley (SD) rat; vs vehicle): marked and statistically significant increases
- weight loss [3]: result in weight loss in animals
- therapeutic index (TI) with respect to heart rate increases (cholesterol-fed rat [4]): 40

Compound: CCOP(=O)(Cc1cc(Br)c(Oc2ccc(O)c(C(C)C)c2)c(Br)c1)OCC [Compound 19-1]
- change in vivo at 0.5 mg/kg/day ([1]; Rattus norvegicus, po, read-out: % Cholesterol Lowering): -6.56%

Compound: Cc1cc(CCP(=O)(O)O)cc(C)c1Cc1ccc(F)c(C(C)C)c1 [Compound 42-2]
- Ki [5]: > 2 µM
- Ki [6]: > 2 µM

Compound: N[C@@H](Cc1cc(I)c(Oc2ccc(O)c(I)c2)c(I)c1)C(=O)O [Compound T3, triiodothyronine]
- Heart GPDH [7]: 284% of control
- Heart weight [7]: 146% of control
- Liver GPDH [7]: 406% of control
- decrease in hepatic triglyceride content (Normal rats): 4%
